Laboratory results reported in US20240132449A1, “HETEROCYCLIC COMPOUNDS AND METHODS OF USE THEREOF” (1cBio, Inc., priority 2022, published 2024).
Where a name gives a salt, the structure may show the parent alone.

Experiments:
[1] = tested on: DLD-1 wild-type colorectal adenocarcinoma cells; test: Cell viability assay (Cell Titer-Glo), DLD-1 wild-type; format: cell-based; details: Homo sapiens, DLD-1, 168 h, 7 days incubation; for inhibition at 10 µM: read-out: DLD-1 wild-type % inh at 10 μM; for IC50: 50 cells/well
In short: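 Isogenic DLD-1 wild-type (50 cells/well) and BRCA2(−/−) (200 cells/well) lines treated after overnight attachment, 7 days at 37 °C, 5% CO2. Ten-point dilutions (e.g. 1.5 nM–30 μM) or single dose; CellTiter-Glo luminescence; IC50 from four-parameter fit, plus % inhibition at 10 μM.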

recombinant human PARP2 = recombinant human PARP2 (Homo sapiens, UniProt Q9UGN5); test: PARP2 fluorescence polarization binding assay; details: for IC50: binding IC50, GST-tagged PARP2 20 nM, PARPi-FL 3 nM; for inhibition at 10 µM: read-out: PARP2 % inh at 10 μM
Sequence of recombinant human PARP2 (Q9UGN5 whole entry): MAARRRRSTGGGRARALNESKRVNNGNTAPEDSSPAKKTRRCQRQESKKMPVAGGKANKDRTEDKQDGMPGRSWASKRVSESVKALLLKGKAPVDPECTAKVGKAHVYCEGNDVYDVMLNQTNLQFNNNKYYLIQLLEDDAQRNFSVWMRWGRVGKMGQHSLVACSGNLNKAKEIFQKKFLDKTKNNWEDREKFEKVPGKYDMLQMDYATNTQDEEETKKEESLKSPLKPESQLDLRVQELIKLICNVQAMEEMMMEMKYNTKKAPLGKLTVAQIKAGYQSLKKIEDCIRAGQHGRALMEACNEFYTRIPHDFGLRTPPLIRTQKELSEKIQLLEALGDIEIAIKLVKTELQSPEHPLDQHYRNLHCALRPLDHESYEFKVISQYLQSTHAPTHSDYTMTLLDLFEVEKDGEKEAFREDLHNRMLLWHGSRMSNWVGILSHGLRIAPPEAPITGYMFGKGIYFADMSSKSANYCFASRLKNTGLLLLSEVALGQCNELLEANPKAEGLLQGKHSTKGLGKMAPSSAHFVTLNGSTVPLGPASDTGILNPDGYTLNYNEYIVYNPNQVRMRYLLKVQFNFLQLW
In short: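 GST-tagged PARP2, added at 40 nM in 50 mM Tris pH 8.0, 0.001% Triton X-100, 10 mM MgCl2, 150 mM NaCl, was preincubated 30 min at RT with compound (10-point 3-fold series or single concentration). PARPi-FL probe was then added at 6 nM for 4 h. IC50 was fitted from fluorescence polarization (ex 480/em 535 nm) with floating top and bottom.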

MDA-MB-436 cells = test: Colony formation assay; format: cell-based; details: Homo sapiens, seeding density 2000-4000 cells/well and treatment time 12-14 days
Description: A colony formation assay was performed to assess the activity of test compounds. MDA-MB-436 cells were harvested, counted and seeded in culture medium (DMEM+10% FBS+1% PS) at a specified density in a volume of 600-1000 μL per well in a 24-well cell culture plate. The plates were incubated overnight at 37° C. in a 5% CO2 incubator. Test compounds were dissolved in DMSO and added to the plate in duplicate wells for each concentration tested. On day 7, the supernatant was removed and 1000 μL of freshly diluted compounds were added to the plates. The plates were returned to incubator to continue incubation. After treatment with the compounds for a specified number of days, e.g. 10-14 days, detection was performed. For detection, the plate was incubated for 20 min after removing the medium and adding fixing solution. Subsequently, the fixing solution was removed and the plates washed with PBS. The plates were then stained with staining solution (0.1% (w/v) crystal violet). After removal of the staining solution, the plates were washed with PBS and scanned on a LICOR imager using the 700 nm channel.

SMILES | inhibition at 10 µM [1] | IC50 [1] | IC50 (recombinant human PARP2) | inhibition at 10 µM (recombinant human PARP2) | inhibition at 0.3 µM (MDA-MB-436 cells) | inhibition at 3 µM (MDA-MB-436 cells) | inhibition at 30 µM (MDA-MB-436 cells)
CCn1c(=O)[nH]c2cc(CN3CCN(c4ccc(C(=O)NC)nc4)CC3)ccc2c1=O [Compound 3, 5-(4-((3-ethyl-2,4-dioxo-1,2,3,4-tetrahydroquinazolin-7-yl)methyl)piperazin-1-yl)-N-methylpicolinamide formate] | < 33% | > 3 µM | > 3 µM | 33 to 67% | ≥ 66.7% | ≥ 66.7% | ≥ 66.7%
CCn1c(=O)[nH]c2cc(CN3CCN(c4ccc(C(=O)NC)nc4C)CC3)ccc2c1=O [Compound 16, 5-{4-[(3-ethyl-2,4-dioxo-1H-quinazolin-7-yl)methyl]piperazin-1-yl}-N,6-dimethylpyridine-2-carboxamide] | < 33% | > 3 µM | > 3 µM | 33 to 67% | ≥ 66.7% | ≥ 66.7% | ≥ 66.7%
CCn1c(=O)[nH]c2cc(CN3CCN(c4ccc(C(=O)NC)nc4C)CC3)ccc2c1=S [Compound 51, 5-(4-((3-ethyl-2-oxo-4-thioxo-1,2,3,4-tetrahydroquinazolin-7-yl)methyl)piperazin-1-yl)-N,6-dimethylpicolinamide formate] | > 67% | > 3 µM | > 3 µM | 33 to 67% | ≥ 66.7% | ≥ 66.7% | ≥ 66.7%
CCn1c(=O)[nH]c2cc(CN3CCN(c4ccc(C(=O)NC)nc4C)CC3)sc2c1=O [Compound 188, 5-(4-((3-ethyl-2,4-dioxo-1,2,3,4-tetrahydrothieno[3,2-d]pyrimidin-6-yl)methyl)piperazin-1-yl)-N,6-dimethylpicolinamide] | < 33% | > 3 µM | > 3 µM | 33 to 67% | ≥ 66.7% | ≥ 66.7% | ≥ 66.7%
CCN1Cc2ccc(CN3CCN(c4ccc(C(=O)NC)nc4)CC3)cc2NC1=O [Compound 196, 5-(4-((3-ethyl-2-oxo-1,2,3,4-tetrahydroquinazolin-7-yl)methyl)piperazin-1-yl)-N-methylpicolinamide formate] | < 33% | > 3 µM | > 3 µM | 33 to 67% | < 33.3% | 33.3 to 66.7% | 33.3 to 66.7%
